Results: patent US9603813B2, “Visual performance and/or macular pigmentation” (Howard Foundation Holdings Limited, priority 2011, dated 2017)

Columns and labels:
[1] = tested on: Bovan Goldline hens; test: Carotenoid contents of egg yolks from hens fed mixed carotenoids (HPLC)
Description: Eight Bovan Goldline hens were obtained at approximately 18 weeks of age.
When the hens were producing at least 8 eggs per day in total, the hens were isolated and fed only a commercial meal. […] The premix provided 250 mg MZ/kg feed with proportions of L 50, MZ 30, Z 20.
The yolk carotenoids were measured in mixtures prepared from all eggs collected at baseline, three and six weeks.
Yolks were individually weighed and mixed with phosphate-buffered saline and made up to 50 ml. Two ml of each suspension was mixed in a separate universal tube for each of the three batches separately and stored at −40 C.
The egg yolk suspension (0.1 ml) was mixed with 0.15 ml aqueous KOH (25 gl100 mlwater), 0.15 ml absolute ethyl alcohol and 0.1 ml echinenone (internal standard, 0.4 mg/500 ml ethyl alcohol) in a glass extraction tube and incubated at 45 C for 45 minutes.
Solutions were then cooled and mixed vigorously with 1.5 ml hexane (containing BHT500 mg/l) and centrifuged to separate the hexane and aqueous layers. One ml of the upper hexane layer was transferred to an evaporating tube and the residue was re-extracted with 1.5 ml hexane. After centrifuging, 1.5 ml of the upper layer was removed and the extracts combined and evaporated to dryness under nitrogen at 40 C. The residue was made up to 0.15 ml with mobile phase (see Ultracarb HPLC below) and 0.1 ml was injected onto a Ultra Carb Column for HLPC analysis.
Separation and quantitation of the MZ was achieved using a two column procedure.
Ultracarb procedure: Extracts prepared as described above were reconstituted in a mobile phase comprising acetonitrile:methanol (85:15 containing 0.1% triethylamine). Using the same solvent mixture at 1.5 ml/min, extracts were chromatographed isocratically using a 3 micro m Ultracarb ODS column (250×4.6 mm, Phenomenex, UK) and detected using a photodiode-array detector (model 2996, Waters Ltd) to quantify L and Z+MZ at 450 nm. Eluent that coincided with the emergence of MZ+Z was collected from the waste line and evaporated to dryness under nitrogen.
Chiral chromoatography: The Z+MZ extract was then reconstituted in 0.1 ml of hexane:isopropanol (90:10) and 50 uL was chromatographed on a 10 micro m Chiralpak® AD column (250×4.6 mm; Chiral Technologies Europe, 67404 Illkirch Cedex, France) to determine the proportion of MZ and Z isomers using gradient elution at 0.8 ml/min starting with 90% hexane and 10% isopropyl alcohol and increasing to 95% hexane in a linear gradient over 30 minutes.

[2] = Plasma carotenoids in one person consuming one egg per day (HPLC); conditions: human, in vivo
Description: The objective of this study was to feed hens a mixture of L, MZ and Z to determine the total amount of MZ in the yolk. In addition 24 eggs collected at the end of the experiment were consumed by one subject, one egg/day and the blood MZ composition determined.
Blood (10 ml) from a human subject was collected in lithium heparin tubes at baseline, day 12 and day 24 after consumption of one egg per day and centrifuged to provide plasma subsequently stored at −40 C. Plasma, 0.25 ml was mixed with 0.2 ml sodium dodecyl sulphate, 0.4 ml ethyl acetate (internal standard). Hexane containing BHT (1.0 ml) was added and the mixture extracted vigorously for 4 minutes, centrifuged for 10 mins and 0.7 ml of the upper hexane layer removed and evaporated to dryness.
The residue was made up to 0.1 ml with mobile phase (see HPLC procedure below) and 0.05 ml was injected onto the column.

[3] = feeding 250 ppm of the carotenoid mixture for 3 weeks

SMILES: CC1=C[C@H](O)CC(C)(C)[C@H]1/C=C/C(C)=C/C=C/C(C)=C/C=C/C=C(C)/C=C/C=C(C)/C=C/C1=C(C)C[C@@H](O)CC1(C)C [L, lutein]
- contents of egg yolks from chicken fed 250 mg/kg mixed carotenoids ([1]; Weeks 0 (baseline)): 563 micro grams per yolk
- contents of egg yolks from chicken fed 250 mg/kg mixed carotenoids ([1]; Weeks 3): 2100 micro grams per yolk
- contents of egg yolks from chicken fed 250 mg/kg mixed carotenoids ([1]; Weeks 6): 2260 micro grams per yolk
- share of the yolk carotenoid content [1, 3]: circa 76%
- concentration at 12 day [2]: 1200 nM
- concentration at 24 day [2]: 1060 nM
- contents of plasma in one person consuming one egg per day [2]: 0.55 micro moles per litre

SMILES: CC1=C(/C=C/C(C)=C/C=C/C(C)=C/C=C/C=C(C)/C=C/C=C(C)/C=C/C2=C(C)C[C@H](O)CC2(C)C)C(C)(C)C[C@H](O)C1 [MZ, (trans, 3R, 3′S meso)-zeaxanthin]
- contents of egg yolks from chicken fed 250 mg/kg mixed carotenoids ([1]; Weeks 0 (baseline)): 0 micro grams per yolk
- contents of egg yolks from chicken fed 250 mg/kg mixed carotenoids ([1]; Weeks 3): 315 micro grams per yolk
- contents of egg yolks from chicken fed 250 mg/kg mixed carotenoids ([1]; Weeks 6): 272 micro grams per yolk
- content of egg yolks [1, 3]: 2.78 mg MZ/yolk
- share of the yolk carotenoid content [1, 3]: 11%

SMILES: CC1=C(/C=C/C(C)=C/C=C/C(C)=C/C=C/C=C(C)/C=C/C=C(C)/C=C/C2=C(C)C[C@@H](O)CC2(C)C)C(C)(C)C[C@H](O)C1 [Z, zeaxanthin]
- contents of egg yolks from chicken fed 250 mg/kg mixed carotenoids ([1]; Weeks 0 (baseline)): 278 micro grams per yolk
- contents of egg yolks from chicken fed 250 mg/kg mixed carotenoids ([1]; Weeks 3): 366 micro grams per yolk
- contents of egg yolks from chicken fed 250 mg/kg mixed carotenoids ([1]; Weeks 6): 328 micro grams per yolk
- share of the yolk carotenoid content [1, 3]: 13%
